# Where two headings read alike, the source gives them in different places.
# Assays:
# Assay in all cases: Test B pre-/postemergence plant response
# Assay type in all cases: in vivo
# [1] = system: Surinam grass (Brachiaria decumbens); conditions: Urochloa decumbens, pre-emergence, Preemergence, read-out: Plant response rating, Surinam Grass
# In short: (§1)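 Pre-em in loam/sand; post-em at 1–4 leaf (2–18 cm) in peat mix. Solvent + surfactant formulation. Greenhouse 13–15 d; visual % control vs untreated, 0–100.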
# [2] = system: galium (catchweed bedstraw, Galium aparine); conditions: Preemergence
# In short: as §1
# [3] = system: yellow nutsedge (Cyperus esculentus); conditions: for pest or weed control at 31 g/ha: 31 g ai/ha; for pest or weed control at 125 g/ha: 125 g ai/ha
# In short: as §1
# [4] = system: wild oat (Avena fatua); conditions: for pest or weed control at 31 g/ha: 31 g ai/ha; for pest or weed control at 125 g/ha: 125 g ai/ha
# In short: as §1
# [5] = system: lambsquarters (Chenopodium album); conditions: for pest or weed control at 31 g/ha: 31 g ai/ha; for pest or weed control at 125 g/ha: 125 g ai/ha
# In short: as §1
# [6] = system: kochia (Kochia scoparia); conditions: for pest or weed control at 31 g/ha: 31 g ai/ha; for pest or weed control at 125 g/ha: 125 g ai/ha
# In short: as §1
# [7] = 125 g ai/ha, scale 0 to 100, 0 no effect, 100 complete control
# [8] = 62 g ai/ha, postemergence, 0 is no effect, 100 is complete control, 13 to 15 days
# [9] = Preemergence, 250 g ai/ha, 0 to 100 scale
smiles,measurement,setting,value
"COCCCn1c(-c2ccccc2)ncc(C(=O)C2=C(O)CCCC2=O)c1=O [Compound 81, 5-[(2-hydroxy-6-oxo-cyclohexen-1-yl)carbonyl]-3-(3-methoxypropyl)-2-phenyl-4(3H)-pyrimidinone]",pest or weed control at 62 g/ha,"[1]; 62 g ai/ha, scale 0 to 100 (0 no effect, 100 complete control)",100%
same,pest or weed control at 125 g/ha,[1]; [7],100%
same,"Plant response rating, Galium","[2]; 31 g ai/ha, scale 0 to 100 (0 no effect, 100 complete control)",85
same,"Plant response rating, Galium","[2]; 62 g ai/ha, scale 0 to 100, 0 no effect, 100 complete control",100
same,"Plant response rating, Galium",[2]; [7],100
same,Galium plant response rating,"[2]; 250 g ai/ha, 0 to 100 scale",100
same,"Nutsedge, Yellow plant response rating (0 to 100 scale)",[3]; [8],80
same,pest or weed control at 31 g/ha,"[3]; Cyperus, post-emergence, postemergence, scale 0 to 100, 0 is no effect, 100 is complete control, read-out: Plant response rating, Nutsedge, Yellow",65%
same,pest or weed control at 125 g/ha,"[3]; Cyperus, post-emergence, Postemergence, visual rating after 13 to 15 days, scale 0 (no effect) to 100 (complete control)",80%
same,pest or weed control at 250 g/ha,"[3]; Cyperus, post-emergence, Postemergence, 250 g ai/ha, scale 0 to 100 (0 no effect, 100 complete control), read-out: Plant response rating, Nutsedge, Yellow",80%
same,pest or weed control at 31 g/ha,"[3]; Cyperus, pre-emergence, Preemergence, scale 0 to 100 (0 no effect, 100 complete control), read-out: Plant response rating, Nutsedge, Yellow",10%
same,pest or weed control at 62 g/ha,"[3]; Cyperus, pre-emergence, Preemergence, 62 g ai/ha, scale 0 to 100 (0 no effect, 100 complete control), read-out: Plant response rating, Nutsedge, Yellow",75%
same,pest or weed control at 125 g/ha,"[3]; Cyperus, pre-emergence, Preemergence, scale 0 to 100, 0 no effect, 100 complete control, read-out: Plant response rating, Nutsedge, Yellow",95%
same,"Nutsedge, Yellow plant response rating",[3]; [9],95
same,"Oat, Wild plant response rating (0 to 100 scale)",[4]; [8],35
same,pest or weed control at 31 g/ha,"[4]; Avena fatua, post-emergence, postemergence, scale 0 to 100, 0 is no effect, 100 is complete control, read-out: Plant response rating, Oat, Wild",25%
same,pest or weed control at 125 g/ha,"[4]; Avena fatua, post-emergence, Postemergence, visual rating after 13 to 15 days, scale 0 (no effect) to 100 (complete control)",50%
same,pest or weed control at 250 g/ha,"[4]; Avena fatua, post-emergence, Postemergence, 250 g ai/ha, scale 0 to 100 (0 no effect, 100 complete control), read-out: Plant response rating, Oat, Wild",55%
same,pest or weed control at 31 g/ha,"[4]; Avena fatua, pre-emergence, Preemergence, scale 0 to 100 (0 no effect, 100 complete control), read-out: Plant response rating, Oat, Wild",0%
same,pest or weed control at 62 g/ha,"[4]; Avena fatua, pre-emergence, Preemergence, 62 g ai/ha, scale 0 to 100 (0 no effect, 100 complete control), read-out: Plant response rating, Oat, Wild",0%
same,pest or weed control at 125 g/ha,"[4]; Avena fatua, pre-emergence, Preemergence, scale 0 to 100, 0 no effect, 100 complete control, read-out: Plant response rating, Oat, Wild",0%
same,"Oat, Wild plant response rating",[4]; [9],0
same,Lambsquarters plant response rating (0 to 100 scale),[5]; [8],98
same,pest or weed control at 31 g/ha,"[5]; Chenopodium album, post-emergence, postemergence, scale 0 to 100, 0 is no effect, 100 is complete control, read-out: Plant response rating, Lambsquarters",95%
same,pest or weed control at 125 g/ha,"[5]; Chenopodium album, post-emergence, Postemergence, visual rating after 13 to 15 days, scale 0 (no effect) to 100 (complete control)",100%
same,pest or weed control at 250 g/ha,"[5]; Chenopodium album, post-emergence, Postemergence, 250 g ai/ha, scale 0 to 100 (0 no effect, 100 complete control), read-out: Plant response rating, Lambsquarters",100%
same,pest or weed control at 31 g/ha,"[5]; Chenopodium album, pre-emergence, Preemergence, scale 0 to 100 (0 no effect, 100 complete control), read-out: Plant response rating, Lambsquarters",98%
same,pest or weed control at 62 g/ha,"[5]; Chenopodium album, pre-emergence, Preemergence, 62 g ai/ha, scale 0 to 100, 0 no effect, 100 complete control, read-out: Plant response rating, Lambsquarters",98%
same,pest or weed control at 125 g/ha,"[5]; Chenopodium album, pre-emergence, Preemergence, scale 0 to 100, 0 no effect, 100 complete control, read-out: Plant response rating, Lambsquarters",98%
same,Lambsquarters plant response rating,[5]; [9],98
same,Kochia plant response rating (0 to 100 scale),[6]; [8],80
same,pest or weed control at 31 g/ha,"[6]; Bassia scoparia, post-emergence, postemergence, scale 0 to 100, 0 is no effect, 100 is complete control, read-out: Plant response rating, Kochia",75%
same,pest or weed control at 125 g/ha,"[6]; Bassia scoparia, post-emergence, Postemergence, visual rating after 13 to 15 days, scale 0 (no effect) to 100 (complete control)",90%
same,pest or weed control at 250 g/ha,"[6]; Bassia scoparia, post-emergence, Postemergence, 250 g ai/ha, scale 0 to 100 (0 no effect, 100 complete control), read-out: Plant response rating, Kochia",100%
same,pest or weed control at 31 g/ha,"[6]; Bassia scoparia, pre-emergence, Preemergence, scale 0 to 100 (0 no effect, 100 complete control), read-out: Plant response rating, Kochia",45%
same,pest or weed control at 62 g/ha,"[6]; Bassia scoparia, pre-emergence, Preemergence, 62 g ai/ha, scale 0 to 100 (0 no effect, 100 complete control), read-out: Plant response rating, Kochia",55%
same,pest or weed control at 125 g/ha,"[6]; Bassia scoparia, pre-emergence, Preemergence, scale 0 to 100, 0 no effect, 100 complete control, read-out: Plant response rating, Kochia",65%
same,Kochia plant response rating,[6]; [9],70

# — patent publication US8952024B2, “Herbicidal pyrimidone derivatives” (E I du Pont de Nemours and Company, priority 2009, dated 2015)
